This passage reports remaining activity results from paper PMC8286840, “Identifying SARS-CoV-2 antiviral compounds by screening for small molecule inhibitors of Nsp3 papain-like protease” (Biochemical Journal, 2021).

Structures can show the parent of a compound that is named as a salt. Where two headings read alike, the source gives them in different places.

Assay [1] deals with T1, SARS-CoV-2 PLpro (nsp3 1564–1878) (Severe acute respiratory syndrome coronavirus 2, UniProt P0DTD1). In words: biochemical. On the set-up: FRET-quenched peptide (Pro3) cleavage by PLpro, 10 min pre-incubation, slope over 20 min, normalised to no-compound control. Particulars: low concentration screen, read-out: % of control remaining.
The target of assay [2] is T1, SARS-CoV-2 PLpro (nsp3 1564–1878). The experiment in a line: biochemical. Particulars: high concentration screen, read-out: % of control remaining. More on the design: FRET-quenched peptide (Pro3) cleavage by PLpro, 10 min pre-incubation, slope over 20 min, normalised to no-compound control.

Turning to `O=C(O)CCC(=O)Nc1ccc(S(=O)(=O)Nc2nccs2)cc1` [Succinylsulfathiazole], the remaining activity at 1.25 µM in assay [1] (Well no.=8034) turned out to be 89.3%. In assay [2] (Well no.=8034), the remaining activity at 3.75 µM was determined as 89.7%.
In the case of `Oc1ccc2ccccc2c1N=Nc1ccc(N=Nc2ccccc2)cc1` [Sudan III], in assay [1] (Well no.=8024), the remaining activity at 1.25 µM came to 93.7%. The remaining activity at 3.75 µM in assay [2] (Well no.=8024) is 93.4%.
For `Nc1ccc(S(=O)(=O)NC(=O)c2ccccc2)cc1` [Sulfabenzamide], the remaining activity at 1.25 µM in assay [1] (Well no.=7306) came out at 103%. Also, the remaining activity at 3.75 µM in assay [2] (Well no.=7306) worked out at 102%.
Consider `NC(=O)NS(=O)(=O)c1ccc(N)cc1` [Sulfacarbamide], for which, in assay [1] (Well no.=7502), the remaining activity at 1.25 µM came out at 96.2%. Besides, in assay [2] (Well no.=7502), the remaining activity at 3.75 µM came to 98.8%.
Take `CC(=O)NS(=O)(=O)c1ccc(N)cc1` [Sulfacetamide (Sodium)]: the remaining activity at 1.25 µM in assay [1] (Well no.=7510) turned out to be 103%. For the same molecule, the remaining activity at 3.75 µM in assay [2] (Well no.=7510) was found to be 102%.
On to `CC(=O)NS(=O)(=O)c1ccc(N)cc1` [Sulfacetamide Sodium], for which, in assay [1] (Well no.=4740), the remaining activity at 1.25 µM turned out to be 106%. Moreover, the remaining activity at 3.75 µM in assay [2] (Well no.=4740) was 106%.
Turning to `Nc1ccc(S(=O)(=O)Nc2ccc(Cl)nn2)cc1` [Sulfachloropyridazine], in assay [1] (Well no.=8360), the remaining activity at 1.25 µM came to 93.9%. The remaining activity at 3.75 µM in assay [2] (Well no.=8360) amounted to 92.1%.
For `Nc1ccc(S(=O)(=O)Nc2cncc(Cl)n2)cc1` [Sulfaclozine (sodium)], in assay [1] (Well no.=7458), the remaining activity at 1.25 µM came out at 96.2%. In addition, the remaining activity at 3.75 µM in assay [2] (Well no.=7458) is 93.3%.
Turning to `Nc1ccc(S(=O)(=O)Nc2ncccn2)cc1` [Sulfadiazine], the remaining activity at 1.25 µM in assay [1] (Well no.=2289) worked out at 99.4%; in assay [1] (Well no.=7494), 97.4%. Moreover, the remaining activity at 3.75 µM worked out at 102% in assay [2] (Well no.=2289) and 98.3% in assay [2] (Well no.=7494).
With `COc1cc(NS(=O)(=O)c2ccc(N)cc2)nc(OC)n1` [Sulfadimethoxine], the remaining activity at 1.25 µM in assay [1] (Well no.=2291) was found to be 93.2%; in assay [1] (Well no.=8358) it was 95.1%. Also, the values for the remaining activity at 3.75 µM in assay [2] (Well no.=2291) and in assay [2] (Well no.=8358) were 91.8% and 95.5%, respectively.
Turning to `COc1ncnc(NS(=O)(=O)c2ccc(N)cc2)c1OC` [Sulfadoxine], the remaining activity at 1.25 µM in assay [1] (Well no.=2287) was 97%; in assay [1] (Well no.=7358), 95.6%. Besides, the remaining activity at 3.75 µM in assay [2] (Well no.=2287) was found to be 92.6%; in assay [2] (Well no.=7358), 98%.
For the molecule `N=C(N)NS(=O)(=O)c1ccc(N)cc1` [Sulfaguanidine], in assay [1] (Well no.=7348), the remaining activity at 1.25 µM turned out to be 93.5%. Besides, in assay [2] (Well no.=7348), the remaining activity at 3.75 µM amounted to 93.1%.
In the case of `COc1nccnc1NS(=O)(=O)c1ccc(N)cc1` [Sulfalene], in assay [1] (Well no.=8228), the remaining activity at 1.25 µM is 103%. The remaining activity at 3.75 µM in assay [2] (Well no.=8228) was determined as 85.7%.
With `Cc1ccnc(NS(=O)(=O)c2ccc(N)cc2)n1` [Sulfamerazine], the remaining activity at 1.25 µM was 92.6% in assay [1] (Well no.=4941) and 94.8% in assay [1] (Well no.=8644). Moreover, the remaining activity at 3.75 µM came to 83.3% in assay [2] (Well no.=4941) and 92.4% in assay [2] (Well no.=8644).
For the molecule `COc1cnc(NS(=O)(=O)c2ccc(N)cc2)nc1` [Sulfameter], the remaining activity at 1.25 µM in assay [1] (Well no.=7406) turned out to be 98.3%; in assay [1] (Well no.=8236), 91.9%. In addition, the remaining activity at 3.75 µM was determined as 100% in assay [2] (Well no.=7406) and 88.3% in assay [2] (Well no.=8236).
For the molecule `Cc1cc(C)nc(NS(=O)(=O)c2ccc(N)cc2)n1` [Sulfamethazine], the remaining activity at 1.25 µM in assay [1] (Well no.=4940) came to 96.7%; in assay [1] (Well no.=7456), 99.7%. For the same molecule, the remaining activity at 3.75 µM in assay [2] (Well no.=4940) came to 95.8%; in assay [2] (Well no.=7456), 99.2%.
Regarding `Cc1nnc(NS(=O)(=O)c2ccc(N)cc2)s1` [Sulfamethizole], the remaining activity at 1.25 µM in assay [1] (Well no.=7444) came to 94.6%; in assay [1] (Well no.=8179), 108%. Besides, the remaining activity at 3.75 µM in assay [2] (Well no.=7444) was found to be 92.4%; in assay [2] (Well no.=8179), 106%.
Turning to `Cc1cc(NS(=O)(=O)c2ccc(N)cc2)no1` [Sulfamethoxazole], the remaining activity at 1.25 µM in assay [1] (Well no.=4662) turned out to be 102%. For the same molecule, the remaining activity at 3.75 µM in assay [2] (Well no.=4662) came out at 98.1%; in assay [2] (Well no.=7398), 107%.
For `COc1ccc(NS(=O)(=O)c2ccc(N)cc2)nn1` [Sulfamethoxypyridazine], the figures for the remaining activity at 1.25 µM in assay [1] (Well no.=7354) and in assay [1] (Well no.=8613) were 101% and 94.6%, respectively. Also, the results for the remaining activity at 3.75 µM in assay [2] (Well no.=7354) and in assay [2] (Well no.=8613) were 99.7% and 94.7%, respectively.
As to `COc1cc(NS(=O)(=O)c2ccc(N)cc2)ncn1` [Sulfamonomethoxine], in assay [1] (Well no.=7544), the remaining activity at 1.25 µM was determined as 98.1%. For the same molecule, the remaining activity at 3.75 µM in assay [2] (Well no.=7544) is 98.5%.
With `Nc1ccc(S(N)(=O)=O)cc1` [Sulfanilamide], the values for the remaining activity at 1.25 µM in assay [1] (Well no.=4620) and in assay [1] (Well no.=7540) were 106% and 94.6%, respectively. Further, the remaining activity at 3.75 µM was 108% in assay [2] (Well no.=4620) and 93.1% in assay [2] (Well no.=7540).
Turning to `Nc1ccc(S(=O)(=O)Nc2ccnn2-c2ccccc2)cc1` [Sulfaphenazole], the remaining activity at 1.25 µM came out at 104% in assay [1] (Well no.=1404) and 85.5% in assay [1] (Well no.=8418). Moreover, the remaining activity at 3.75 µM in assay [2] (Well no.=1404) was found to be 99.3%; in assay [2] (Well no.=8418), 85.2%.
`Nc1ccc(S(=O)(=O)Nc2cnc3ccccc3n2)cc1` [Sulfaquinoxaline sodium salt]: the remaining activity at 1.25 µM in assay [1] (Well no.=8124) turned out to be 103%. Also, the remaining activity at 3.75 µM in assay [2] (Well no.=8124) was 100%.
In the case of `O=C(O)c1cc(/N=N/c2ccc(S(=O)(=O)Nc3ccccn3)cc2)ccc1O` [Sulfasalazine], the remaining activity at 1.25 µM in assay [1] (Well no.=2293) was 96.4%; in assay [1] (Well no.=7312), 101%. Further, the remaining activity at 3.75 µM was 97.5% in assay [2] (Well no.=2293) and 101% in assay [2] (Well no.=7312).
In the case of `Nc1ccc(S(=O)(=O)Nc2nccs2)cc1` [Sulfathiazole (sodium)], the remaining activity at 1.25 µM in assay [1] (Well no.=7404) amounted to 104%. The remaining activity at 3.75 µM in assay [2] (Well no.=7404) was 102%.
Consider `Nc1ccc(S(=O)(=O)Nc2nccs2)cc1` [Sulfathiazole], for which the remaining activity at 1.25 µM in assay [1] (Well no.=4937) is 98.9%. Further, in assay [2] (Well no.=4937), the remaining activity at 3.75 µM was found to be 95.6%.
